Source: ChEMBL document CHEMBL1142222, “A-803467, a potent and selective Nav1.8 sodium channel blocker, attenuates neuropathic and inflammatory pain in the rat” (Proc Natl Acad Sci U S A, 2007)
Calls of active or inactive are those of the source. The calls are words filed in the database; no cut-off is given here.

Columns and labels:
P2X purinoceptor 2 = P2X purinoceptor 2 (Homo sapiens, UniProt Q9UBL9); test: Inhibition of P2X2 receptor
[1] = target: C-X-C chemokine receptor type 2 (Homo sapiens, UniProt P25025); test: Displacement of [125I]IL8 from CXCR2 receptor
D(1B) dopamine receptor = D(1B) dopamine receptor (Homo sapiens, UniProt P21918); test: Displacement of [3H]SCH23390 from dopamine D5 receptor
Rattus norvegicus [2] = test: Analgesic activity in ip dosed rat capsaicn induced mechanical allodynia model; type: functional
[3] = target: Muscarinic acetylcholine receptor M5 (Homo sapiens, UniProt P08912); test: Displacement of [3H]4DAMP from muscarinic M5 receptor
[4] = Displacement of [125I]TNFalpha from TNFalpha receptor
[5] = Displacement of [3H]GABA from GABA receptor
Rattus norvegicus [6] = test: Analgesic activity in ip dosed rat acute mechanical stimulation nociception model assessed as paw withdrawal latency; type: functional
Rattus norvegicus [7] = test: Analgesic activity in ip dosed rat complete Freund's adjuvant-induced mechanical hyperalgesia model assessed as paw withdrawal latency after 2 days; type: functional; conditions: 48 h
Cannabinoid receptor 2 = Cannabinoid receptor 2 (Homo sapiens, UniProt P34972); test: Displacement of [3H]Win 55212-2 from cannabinoid CB2 receptor
Chain of Cannabinoid receptor 2 (P34972 whole entry): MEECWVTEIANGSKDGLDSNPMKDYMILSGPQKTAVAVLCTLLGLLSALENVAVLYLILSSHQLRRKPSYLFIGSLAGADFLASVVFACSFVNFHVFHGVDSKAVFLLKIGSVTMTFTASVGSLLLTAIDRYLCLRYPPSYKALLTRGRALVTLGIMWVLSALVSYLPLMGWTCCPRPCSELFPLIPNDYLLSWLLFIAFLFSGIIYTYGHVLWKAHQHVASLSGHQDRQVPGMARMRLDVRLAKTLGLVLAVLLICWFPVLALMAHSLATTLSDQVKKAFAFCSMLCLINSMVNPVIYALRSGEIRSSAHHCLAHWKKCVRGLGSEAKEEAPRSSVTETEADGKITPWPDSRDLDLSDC

Mus musculus [8] = test: Analgesic activity in ip dosed mouse visceral pain model assessed as acetic acid induced writhing; type: functional
Rattus norvegicus [9] = test: Analgesic activity in rat formalin flinching inflammatory pain model at 300 mg/kg, ip; type: functional; conditions: route intraperitoneal
[10] = Bioavailability in rat at 10 mg/kg, ip; type: ADME, organism-based; conditions: in vivo
Histamine H1 receptor = Histamine H1 receptor (Homo sapiens, UniProt P35367); test: Displacement of [3H]pyrilamine from histamine H1 receptor
[11] = target: T1, Sodium channel protein type 10 subunit alpha (Homo sapiens, UniProt Q9Y5Y9); test: Inhibition of human Nav1.8 channel expressed in HEK293 cells at -100 mV by patch clamp method; type: cell-based
T1 sequence (Q9Y5Y9 whole entry): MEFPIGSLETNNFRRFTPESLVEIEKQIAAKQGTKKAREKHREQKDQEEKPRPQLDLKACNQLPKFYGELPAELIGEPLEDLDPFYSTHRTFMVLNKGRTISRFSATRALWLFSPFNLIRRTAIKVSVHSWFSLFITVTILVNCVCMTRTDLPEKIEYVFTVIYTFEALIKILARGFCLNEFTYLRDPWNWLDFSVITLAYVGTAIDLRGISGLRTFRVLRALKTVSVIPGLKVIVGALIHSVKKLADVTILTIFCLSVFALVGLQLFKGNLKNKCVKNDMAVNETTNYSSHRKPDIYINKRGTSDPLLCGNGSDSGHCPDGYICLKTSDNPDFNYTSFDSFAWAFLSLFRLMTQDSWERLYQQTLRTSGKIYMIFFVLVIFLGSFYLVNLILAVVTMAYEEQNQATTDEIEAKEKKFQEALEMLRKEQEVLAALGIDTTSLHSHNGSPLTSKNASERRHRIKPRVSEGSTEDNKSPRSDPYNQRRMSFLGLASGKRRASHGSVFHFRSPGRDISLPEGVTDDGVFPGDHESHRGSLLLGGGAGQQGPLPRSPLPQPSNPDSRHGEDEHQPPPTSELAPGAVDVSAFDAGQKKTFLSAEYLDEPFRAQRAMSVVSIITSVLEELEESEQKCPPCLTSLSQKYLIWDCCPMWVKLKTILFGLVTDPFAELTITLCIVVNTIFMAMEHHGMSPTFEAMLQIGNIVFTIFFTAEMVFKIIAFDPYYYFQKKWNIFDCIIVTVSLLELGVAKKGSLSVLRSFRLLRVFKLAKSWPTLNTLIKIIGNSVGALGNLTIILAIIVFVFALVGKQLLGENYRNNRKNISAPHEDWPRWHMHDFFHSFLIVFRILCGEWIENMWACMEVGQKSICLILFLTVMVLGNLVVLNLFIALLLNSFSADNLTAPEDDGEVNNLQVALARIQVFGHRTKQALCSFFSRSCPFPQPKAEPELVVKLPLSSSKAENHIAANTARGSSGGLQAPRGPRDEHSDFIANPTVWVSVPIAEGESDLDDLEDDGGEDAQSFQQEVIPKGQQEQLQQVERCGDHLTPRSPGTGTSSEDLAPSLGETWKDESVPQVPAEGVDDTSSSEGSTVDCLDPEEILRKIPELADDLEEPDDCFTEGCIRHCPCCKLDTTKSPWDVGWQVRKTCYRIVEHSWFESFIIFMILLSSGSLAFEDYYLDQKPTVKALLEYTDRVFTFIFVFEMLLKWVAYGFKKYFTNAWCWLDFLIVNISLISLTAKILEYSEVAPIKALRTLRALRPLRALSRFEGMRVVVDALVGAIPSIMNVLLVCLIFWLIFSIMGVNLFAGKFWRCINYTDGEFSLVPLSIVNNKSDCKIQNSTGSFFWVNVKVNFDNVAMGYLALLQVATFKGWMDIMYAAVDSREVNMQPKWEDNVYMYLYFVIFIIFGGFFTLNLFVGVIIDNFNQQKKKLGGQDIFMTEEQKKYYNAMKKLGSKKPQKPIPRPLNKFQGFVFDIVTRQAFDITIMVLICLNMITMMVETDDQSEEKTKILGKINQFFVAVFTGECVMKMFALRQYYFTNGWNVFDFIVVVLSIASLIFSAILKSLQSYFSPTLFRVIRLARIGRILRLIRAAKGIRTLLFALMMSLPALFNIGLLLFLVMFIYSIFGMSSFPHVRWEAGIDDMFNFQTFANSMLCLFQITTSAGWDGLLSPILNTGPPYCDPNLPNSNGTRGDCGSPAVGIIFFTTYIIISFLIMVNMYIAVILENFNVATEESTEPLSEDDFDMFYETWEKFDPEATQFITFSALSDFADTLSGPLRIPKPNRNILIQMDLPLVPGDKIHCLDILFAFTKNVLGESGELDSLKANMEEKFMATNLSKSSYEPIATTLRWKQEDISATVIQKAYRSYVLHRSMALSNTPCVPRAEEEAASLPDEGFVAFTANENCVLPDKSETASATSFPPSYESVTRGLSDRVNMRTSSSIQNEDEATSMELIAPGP

[12] = target: 5-hydroxytryptamine receptor 1B (Homo sapiens, UniProt P28222); test: Displacement of [3H]CYP from 5HT1B receptor
[13] = target: Sodium channel protein type 10 subunit alpha (Rattus norvegicus, UniProt Q62968); test: Inhibition of Nav1.8 channel in rat dorsal root ganglion neurons assessed as blockade of TTX-R current by patch clamp method; type: tissue-based
Rattus norvegicus [14] = test: Analgesic activity in rat complete Freund's adjuvant-induced thermal hyperalgesia model assessed as paw withdrawal latency at 100 mg/kg, ip after 2 days; type: functional; conditions: route intraperitoneal
[15] = target: 5-hydroxytryptamine receptor 5A (Homo sapiens, UniProt P47898); test: Displacement of [3H]LSD from 5HT5A receptor
Rattus norvegicus [16] = test: Analgesic activity in ip dosed rat skin incision model of post-operative pain after 24 hrs; type: functional
Rattus norvegicus [17] = test: Analgesic activity in rat complete Freund's adjuvant-induced mechanical hyperalgesia model assessed as paw withdrawal latency at 100 mg/kg, ip after 2 days; type: functional; conditions: route intraperitoneal
[18] = target: Beta-2 adrenergic receptor (Homo sapiens, UniProt P07550); test: Displacement of [3H](-)CGP-12177 from adrenergic beta2 receptor
[19] = target: T1, Sodium channel protein type 10 subunit alpha; test: Inhibition of human Nav1.8 channel expressed in human HEK293 cells by patch clamp method; type: cell-based
[20] = Oral bioavailability in rat; type: ADME, organism-based; conditions: in vivo
[21] = target: Muscarinic acetylcholine receptor M2 (Homo sapiens, UniProt P08172); test: Displacement of [3H]AF-DX384 from muscarinic M2 receptor
Rattus norvegicus [22] = test: Analgesic activity in ip dosed rat complete Freund's adjuvant-induced thermal hyperalgesia model assessed as paw withdrawal latency after 2 days; type: functional; conditions: 48 h
Rattus norvegicus [23] = test: Analgesic activity in ip dosed rat vincristine-induced mechanical allodynic neuropathic pain; type: functional
[24] = target: Sodium channel protein type 3 subunit alpha (Homo sapiens, UniProt Q9NY46); test: Inhibition of human Nav1.3 channel expressed in HEK293 cells at -120 mV by patch clamp method; type: cell-based
P2Y purinoceptor 2 = P2Y purinoceptor 2 (Homo sapiens, UniProt P41231); test: Displacement of [35S]dATP-alpha-S from P2Y receptor
Rattus norvegicus [25] = test: Analgesic activity in rat carrageenan-induced […] pain model at 100 mg/kg, ip; type: functional; conditions: route intraperitoneal
Rattus norvegicus [26] = test: Analgesic activity in rat complete Freund's adjuvant-induced mechanical hyperalgesia model assessed as paw withdrawal latency at 100 mg/kg, ip after 4 days; type: functional; conditions: route intraperitoneal
[27] = target: T1, Sodium channel protein type 10 subunit alpha; test: Inhibition of human Nav1.8 channel expressed in HEK293 cells at -40 mV by patch clamp method; type: cell-based
[28] = target: T2, Sodium channel protein type 5 subunit alpha (Homo sapiens, UniProt Q14524); test: Inhibition of human Nav1.5 channel expressed in HEK293 cells at -90 mV by patch clamp method; type: cell-based
T2 sequence (Q14524 whole entry): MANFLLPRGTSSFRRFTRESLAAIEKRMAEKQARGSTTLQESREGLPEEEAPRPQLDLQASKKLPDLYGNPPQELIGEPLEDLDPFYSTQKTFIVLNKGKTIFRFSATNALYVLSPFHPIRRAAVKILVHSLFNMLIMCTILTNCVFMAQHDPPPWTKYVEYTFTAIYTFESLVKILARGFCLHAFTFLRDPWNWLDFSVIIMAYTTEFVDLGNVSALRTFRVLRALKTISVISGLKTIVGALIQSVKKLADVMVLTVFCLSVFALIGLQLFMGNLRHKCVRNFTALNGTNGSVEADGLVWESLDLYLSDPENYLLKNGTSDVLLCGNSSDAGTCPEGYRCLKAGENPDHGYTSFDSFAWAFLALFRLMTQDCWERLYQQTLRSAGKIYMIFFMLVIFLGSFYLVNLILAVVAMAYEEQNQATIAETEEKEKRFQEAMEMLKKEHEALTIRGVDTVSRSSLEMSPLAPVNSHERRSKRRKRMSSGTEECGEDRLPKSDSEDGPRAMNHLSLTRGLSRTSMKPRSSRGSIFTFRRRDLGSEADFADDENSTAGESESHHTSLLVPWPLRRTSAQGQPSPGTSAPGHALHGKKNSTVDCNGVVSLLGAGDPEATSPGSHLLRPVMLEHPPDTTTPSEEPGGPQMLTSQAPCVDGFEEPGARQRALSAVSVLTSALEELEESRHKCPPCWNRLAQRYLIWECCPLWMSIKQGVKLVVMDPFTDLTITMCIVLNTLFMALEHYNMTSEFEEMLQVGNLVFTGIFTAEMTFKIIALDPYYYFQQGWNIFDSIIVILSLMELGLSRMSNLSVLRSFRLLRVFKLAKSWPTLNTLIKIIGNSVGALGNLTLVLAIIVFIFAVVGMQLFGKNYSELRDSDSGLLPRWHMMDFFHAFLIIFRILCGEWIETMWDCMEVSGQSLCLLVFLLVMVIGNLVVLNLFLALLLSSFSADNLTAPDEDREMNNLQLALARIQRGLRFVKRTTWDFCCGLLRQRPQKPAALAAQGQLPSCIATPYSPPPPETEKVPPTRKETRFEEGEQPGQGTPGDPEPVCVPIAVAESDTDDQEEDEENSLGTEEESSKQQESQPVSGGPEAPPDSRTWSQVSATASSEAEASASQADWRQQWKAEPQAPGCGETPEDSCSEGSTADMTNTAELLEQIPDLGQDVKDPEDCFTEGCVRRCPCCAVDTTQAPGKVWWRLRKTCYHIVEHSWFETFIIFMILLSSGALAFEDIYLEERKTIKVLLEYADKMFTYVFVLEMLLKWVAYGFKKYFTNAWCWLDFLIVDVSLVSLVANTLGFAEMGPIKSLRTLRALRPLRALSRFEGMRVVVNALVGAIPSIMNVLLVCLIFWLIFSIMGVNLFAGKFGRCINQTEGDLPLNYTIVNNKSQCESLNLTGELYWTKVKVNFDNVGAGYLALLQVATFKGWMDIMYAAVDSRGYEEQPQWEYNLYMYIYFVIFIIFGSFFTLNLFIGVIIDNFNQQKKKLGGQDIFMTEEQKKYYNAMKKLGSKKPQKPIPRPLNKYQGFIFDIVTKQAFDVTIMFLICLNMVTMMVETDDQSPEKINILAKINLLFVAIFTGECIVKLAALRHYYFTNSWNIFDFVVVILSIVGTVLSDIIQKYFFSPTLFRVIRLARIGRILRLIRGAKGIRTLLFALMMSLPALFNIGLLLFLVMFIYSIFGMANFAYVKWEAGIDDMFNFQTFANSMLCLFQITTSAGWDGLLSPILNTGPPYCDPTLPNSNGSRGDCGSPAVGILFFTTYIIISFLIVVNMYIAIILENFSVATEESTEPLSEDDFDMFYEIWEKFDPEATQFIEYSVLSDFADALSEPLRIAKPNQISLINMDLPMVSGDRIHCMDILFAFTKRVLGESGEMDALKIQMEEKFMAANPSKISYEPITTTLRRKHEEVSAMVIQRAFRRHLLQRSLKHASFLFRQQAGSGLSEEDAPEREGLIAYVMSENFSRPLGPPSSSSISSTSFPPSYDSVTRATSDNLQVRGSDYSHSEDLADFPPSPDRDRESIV

[29] = target: 5-hydroxytryptamine receptor 6 (Homo sapiens, UniProt P50406); test: Displacement of [3H]LSD from 5HT6 receptor
[30] = Clearance in rat plasma; type: ADME, organism-based
[31] = target: C-C chemokine receptor type 1 (Homo sapiens, UniProt P32246); test: Displacement of [125I]MIP1-alpha from CCR1 receptor
[32] = Cmax in rat at 10 mg/kg, ip; type: ADME, organism-based; design: dose 10 mg/kg, route intraperitoneal; conditions: in vivo
DRG neuron = test: Suppression of evoked action potential firing in rat DRG neurons at 0.3 uM; type: functional, cell-based
[33] = target: Kappa-type opioid receptor (Homo sapiens, UniProt P41145); test: Displacement of [3H]U-69593 from opioid kappa receptor
[34] = Drug level in rat plasma at 10 to 100 mg/kg, ip after 45 mins; type: ADME, organism-based; design: dose 10-100 mg/kg, route intraperitoneal
Rattus norvegicus [35] = test: Motor effect in ip dosed rat assessed as latency to fall by edge balance test; type: functional
Rattus norvegicus [36] = test: Analgesic activity in rat complete Freund's adjuvant-induced thermal hyperalgesia model assessed as paw withdrawal latency at 100 mg/kg, ip after 4 days; type: functional; conditions: route intraperitoneal
Mus musculus [37] = test: Analgesic activity in mouse visceral pain model assessed as acetic acid induced writhing at 100 mg/kg, ip; type: functional; conditions: route intraperitoneal
Rattus norvegicus [38] = test: Analgesic activity in rat L5/L6 spinal nerve ligation-induced neuropathic pain model at 100 mg/kg, ip; type: functional; conditions: route intraperitoneal
[39] = target: T3, Sodium channel protein type 9 subunit alpha (Homo sapiens, UniProt Q15858); test: Inhibition of human Nav1.7 channel expressed in HEK293 cells at -60 mV by patch clamp method; type: cell-based
Rattus norvegicus [40] = organism: Rattus norvegicus; test: Motor effect in rat by rotarod test; type: functional
[41] = target: T3, Sodium channel protein type 9 subunit alpha; test: Inhibition of human Nav1.7 channel expressed in HEK293 cells at -120 mV by patch clamp method; type: cell-based
D(2) dopamine receptor = D(2) dopamine receptor (Homo sapiens, UniProt P14416); test: Displacement of [3H]spiperone from dopamine D2 receptor
[42] = target: T2, Sodium channel protein type 5 subunit alpha; test: Inhibition of human Nav1.5 channel expressed in HEK293 cells at -150 mV by patch clamp method; type: cell-based
[43] = target: Transient receptor potential cation channel subfamily V member 1 (Homo sapiens, UniProt Q8NER1); test: Inhibition of TRPV1
Rattus norvegicus [44] = test: Analgesic activity in rat chronic constriction injury model of cold allodynic neuropathic pain at 100 mg/kg, ip; type: functional; conditions: route intraperitoneal
Rattus norvegicus [45] = test: Analgesic activity in ip dosed rat acute thermal stimulation nociception model assessed as paw withdrawal latency; type: functional

Chain of P2X purinoceptor 2 (Q9UBL9 whole entry): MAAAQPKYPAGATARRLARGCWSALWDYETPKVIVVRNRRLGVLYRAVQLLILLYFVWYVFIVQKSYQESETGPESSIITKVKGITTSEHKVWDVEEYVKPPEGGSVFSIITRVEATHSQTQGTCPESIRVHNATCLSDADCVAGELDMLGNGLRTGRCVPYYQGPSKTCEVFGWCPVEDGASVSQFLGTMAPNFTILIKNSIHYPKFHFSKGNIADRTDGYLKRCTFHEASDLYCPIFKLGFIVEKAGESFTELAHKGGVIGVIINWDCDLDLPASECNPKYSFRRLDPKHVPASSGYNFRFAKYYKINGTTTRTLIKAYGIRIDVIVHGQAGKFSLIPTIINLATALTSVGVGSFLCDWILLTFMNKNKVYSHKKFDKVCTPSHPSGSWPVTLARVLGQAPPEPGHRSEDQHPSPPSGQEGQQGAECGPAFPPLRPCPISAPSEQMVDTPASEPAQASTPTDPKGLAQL

## COc1cc(NC(=O)c2ccc(-c3ccc(Cl)cc3)o2)cc(OC)c1
P2X purinoceptor 2
  IC50: > 10 µM
[1]
  IC50: > 10 µM
D(1B) dopamine receptor
  IC50: > 10 µM
Rattus norvegicus [2]
  ED50: 100 mg/kg
[3]
  IC50: > 10 µM
[4]
  IC50: > 10 µM
[5]
  IC50: > 10 µM
Rattus norvegicus [6]
  ED50: 65 mg/kg
Rattus norvegicus [7]
  ED50: > 100 mg/kg
Cannabinoid receptor 2
  IC50: > 10 µM
Mus musculus [8]
  ED50: > 100 mg/kg
Rattus norvegicus [9]
  Activity: 9%
[10]
  bioavailability: 26%
Histamine H1 receptor
  IC50: > 10 µM
[11]
  IC50: 0.079 µM
[12]
  IC50: > 10 µM
[13]
  IC50: 0.14 µM
Rattus norvegicus [14]
  Activity: 64%
[15]
  IC50: > 10 µM
Rattus norvegicus [16]
  ED50: > 100 mg/kg
Rattus norvegicus [17]
  Activity: 34%
[18]
  IC50: > 10 µM
[19]
  IC50: 0.008 µM
[20]
  bioavailability: 12.8%
[21]
  IC50: > 10 µM
Rattus norvegicus [22]
  ED50: 100 mg/kg
Rattus norvegicus [23]
  ED50: > 100 mg/kg
[24]
  IC50: 11.8 µM
P2Y purinoceptor 2
  IC50: > 10 µM
Rattus norvegicus [25]
  Activity: 54%
Rattus norvegicus [26]
  Activity: 42%
[27]
  IC50: 0.008 µM
[28]
  IC50: 7.34 µM
[29]
  IC50: > 10 µM
[30]
  clearance: 25 mL/min/kg
[31]
  IC50: > 10 µM
[32]
  Cmax: 350 ng/mL
DRG neuron
  Activity: Active
[33]
  IC50: > 10 µM
[34]
  concentration at 0.75 h: 400 ng/mL
Rattus norvegicus [35]
  ED50: > 300 mg/kg
Rattus norvegicus [36]
  Activity: 71%
Mus musculus [37]
  Activity: 34%
Rattus norvegicus [38]
  Activity: 70%
[39]
  IC50: 6.74 µM
Rattus norvegicus [40]
  ED50: > 300 mg/kg
[41]
  IC50: 35.3 µM
D(2) dopamine receptor
  IC50: > 10 µM
[42]
  IC50: 32.8 µM
[43]
  IC50: > 10 µM
Rattus norvegicus [44]
  Activity: 61%
Rattus norvegicus [45]
  ED50: > 100 mg/kg
